Laboratory results: patent US20110053925A1, “Hydroxamate-Based Inhibitors of Deacetylases” (Novartis AG, priority 2009, published 2011)

Legend:
HCT116 = HCT116 IC50; format: cell-based; conditions: Homo sapiens, HCT-116
HDAC-1 = target: T1, HDAC-1 (Homo sapiens, UniProt Q13547); test: HDAC Inhibition Assay (purified GST-HDAC protein); format: biochemical
T1 construct: made in house; host or cells: Sf9 or Sf21 insect cells (baculovirus, donor vector pFB-GSTX3)
Excerpt: The baculovirus donor vector pFB-GSTX3 is used to generate a recombinant baculovirus that can express the HDAC polypeptide. Transfer vectors containing the HDAC coding region are transfected into the DH10Bac cell line (GIBCO) and plated on selective agar plates. Colonies without insertion of the fusion sequence into the viral genome (carried by the bacteria) are blue. Single, white colonies are picked and viral DNAs (bacmid) are isolated from the bacteria by standard plasmid purification procedures. Sf9 cells or Sf21 (American Type Culture Collection) cells are then transfected in […] flasks with the viral DNA using Cellfectin reagent.
Virus-containing media is collected from the transfected cell culture and used for infection to increase its titer. Virus-containing media obtained after two rounds of infection is used for large-scale protein expression. For large-scale protein expression 100 cm^2 round tissue culture plates are seeded with 5×10^7 cells/plate and infected with 1 mL of virus-containing media (at an approximately MOI of 5). After 3 days, the cells are scraped off the plate and centrifuged at 500 rpm for 5 minutes. Cell pellets from 10-20, 100 cm^2 plates, are re-suspended in 50 mL of ice-cold lysis buffer (25 mM tris-HCl, pH 7.5, 2 mM EDTA, 1% NP-40, 1 mM DTT, 1 mM P MSF). The cells are stirred on ice for 15 minutes and then centrifuged at 5,000 rpms for 20 minutes.
The centrifuged cell lysate is loaded onto a 2 mL glutathione-sepharose column (Pharmacia) and is washed thrice with 10 mL of 25 mM tris-HCl, pH 7.5, 2 mM EDTA, 1 mM DTT, 200 mM NaCl. The GST-tagged proteins are then eluted by 10 applications (1 mL each) of 25 mM tris-HCl, pH 7.5, 10 mM reduced-glutathione, 100 mM NaCl, 1 mM DTT, 10% glycerol and stored at −70° C.
HDAC assays with purified GST-HDAC protein are carried out in a final volume of 30 μL containing 15 ng of GST-HDAC protein, 20 mM tris-HCl, pH 7.5, 1 mM MnCl2, 10 mM MgCl2, 1 mM DTT, 3 μg/mL poly(Glu,Tyr) 4:1, 1% DMSO, 2.0 μM ATP (γ-[^33P]-ATP 0.1 μCi). The activity is assayed in the presence or absence of inhibitors. […] Subsequently, […] of the reaction mixture are transferred onto EMMOBILON-PVDF membrane (Millipore) previously soaked for 5 minutes with methanol, rinsed with water, then soaked for 5 minutes with 0.5% H3PO4 and mounted on vacuum manifold with disconnected vacuum source. After spotting all samples, a vacuum is connected and each well rinsed with 200 μL 0.5% H3PO4. Membranes are removed and washed four times on a shaker with 1.0% H3PO4, once with ethanol. Membranes are counted after drying at ambient temperature, mounting in Packard TopCount 96-well frame, and addition of 10 μL/well of MICROSCINT™ (Packard).
• Input: 3×4 μL stopped assay on IMMOBILON membrane, not washed • Background (3 wells): assay with H2O instead of enzyme • Positive control (4 wells): 3% DMSO instead of compound • Bath control (1 well): no reaction mix
In each experiment, the actual inhibition by reference compound is used for normalization of IC50 values to the basis of an average value of the reference inhibitor:
Normalized IC50=measured IC50 average ref. IC50/measured ref. IC50

T1 sequence (Q13547 whole entry, species assumed): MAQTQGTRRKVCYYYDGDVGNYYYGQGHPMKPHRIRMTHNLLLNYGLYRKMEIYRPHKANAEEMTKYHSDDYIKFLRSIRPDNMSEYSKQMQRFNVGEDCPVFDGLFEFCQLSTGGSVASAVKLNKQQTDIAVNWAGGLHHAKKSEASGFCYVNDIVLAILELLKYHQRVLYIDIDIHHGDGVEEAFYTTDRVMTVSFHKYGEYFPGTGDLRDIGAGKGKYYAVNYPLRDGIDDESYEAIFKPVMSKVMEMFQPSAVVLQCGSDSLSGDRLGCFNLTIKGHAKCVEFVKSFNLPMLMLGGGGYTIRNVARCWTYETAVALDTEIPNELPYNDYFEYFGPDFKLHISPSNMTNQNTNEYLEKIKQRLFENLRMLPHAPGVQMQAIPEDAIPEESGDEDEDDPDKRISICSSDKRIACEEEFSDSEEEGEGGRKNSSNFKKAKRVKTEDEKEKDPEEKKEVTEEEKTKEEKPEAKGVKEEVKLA

An IC50 (HCT116) of 32 nM and an IC50 (HDAC-1) of 9 nM were found for O=C(/C=C/c1ccc(CN2CCCC(c3c[nH]c4ccccc34)C2)cc1)NO (stereo not shown) [Compound 2, (E)-N-Hydroxy-3-{4-[3-(1H-indol-3-yl)-piperidin-1-ylmethyl]-phenyl}-acrylamide] in this work.
An IC50 (HCT116) of 12 nM and an IC50 (HDAC-1) of 6 nM were found for Cc1[nH]c2ccccc2c1[C@H]1CCCN(Cc2ccc(/C=C/C(=O)NO)cc2)C1 [Compound 3, (E)-N-Hydroxy-3-{4-[(R)-3-(2-methyl-1H-indol-3-yl)-piperidin-1-ylmethyl]-phenyl}-acrylamide] in this work.
An IC50 (HCT116) of 13 nM and an IC50 (HDAC-1) of 11 nM were found for Cc1[nH]c2ccc(N3CCOCC3)cc2c1C1CCCN(Cc2ccc(/C=C/C(=O)NO)cc2F)C1 (stereo not shown) [Compound 4, (E)-3-{3-Fluoro-4-[3-(2-methyl-5-morpholin-4-yl-1H-indol-3-yl)-piperidin-1-ylmethyl]-phenyl}-N-hydroxy-acrylamide] in this work.
An IC50 (HCT116) of 2.1 nM and an IC50 (HDAC-1) of 6 nM were found for O=C(/C=C/c1ccc(CN2CCCC(c3c(-c4ccccc4)[nH]c4ccccc34)C2)cc1)NO (stereo not shown) [Compound 5, (E)-N-Hydroxy-3-{4-[3-(2-phenyl-1H-indol-3-yl)-piperidin-1-ylmethyl]-phenyl}-acrylamide] in this work.
An IC50 (HCT116) of 0.3 nM and an IC50 (HDAC-1) of 3 nM were found for CC(C)(C)c1[nH]c2ccccc2c1C1CCCN(Cc2ccc(/C=C/C(=O)NO)cc2)C1 (stereo not shown) [Compound 6, (E)-3-{4-[3-(2-tert-Butyl-1H-indol-3-yl)-piperidin-1-ylmethyl]-phenyl}-N-hydroxy-acrylamide] in this work.
An IC50 (HCT116) of 12 nM and an IC50 (HDAC-1) of 9 nM were found for CC(C)(C)c1[nH]c2ccccc2c1C1=CCCN(Cc2ccc(/C=C/C(=O)NO)cc2)C1 [Compound 7, (E)-3-{4-[5-(2-tert-Butyl-1H-indol-3-yl)-3,6-dihydro-2H-pyridin-1-ylmethyl]-phenyl}-N-hydroxy-acrylamide] in this work.
An IC50 (HCT116) of 300 nM and an IC50 (HDAC-1) of 17 nM were found for Cc1[nH]c2ccccc2c1C1C/C(=N/O)CN(Cc2ccc(/C=C/C(=O)NO)cc2)C1 (stereo not shown) [Compound 8, (E)-N-Hydroxy-3-{4-[3-[(Z)-hydroxyimino]-5-(2-methyl-1H-indol-3-yl)-piperidin-1-ylmethyl]-phenyl}-acrylamide] in this work.
An IC50 (HCT116) of 48 nM and an IC50 (HDAC-1) of 8 nM were found for O=C(/C=C/c1ccc(CN2CCCC(C3C(=O)Nc4ccccc43)C2)cc1)NO (stereo not shown) [Compound 9, (E)-N-Hydroxy-3-{4-[3-(2-oxo-2,3-dihydro-1H-indol-3-yl)-piperidin-1-ylmethyl]-phenyl}-acrylamide] in this work.
An IC50 (HCT116) of 0.8 nM was found for CC(C)(C)c1[nH]c2ccccc2c1[C@@H]1CCCN(Cc2ccc(/C=C/C(=O)NO)cc2F)C1 [Compound 11, (E)-3-{4-[(S)-3-(2-tert-Butyl-1H-indol-3-yl)-piperidin-1-ylmethyl]-3-fluoro-phenyl}-N-hydroxy-acrylamide] in this work.
An IC50 (HDAC-1) of 260 nM was found for O=C(/C=C/c1ccc(CN2CCN(S(=O)(=O)c3ccc(F)cc3)CC2)cc1)NO [Compound 57, (E)-3-{4-[4-(4-Fluoro-benzenesulfonyl)-piperazin-1-ylmethyl]-phenyl}-N-hydroxy-acrylamide] in this work.
An IC50 (HDAC-1) of 290 nM was found for O=C(/C=C/c1ccc(CN2CCN(S(=O)(=O)c3ccccc3)c3ccccc32)cc1)NO [Compound 58, (E)-3-[4-(4-Benzenesulfonyl-3,4-dihydro-2H-quinoxalin-1-ylmethyl)-phenyl]-N-hydroxy-acrylamide] in this work.
An IC50 (HDAC-1) of 320 nM was found for O=C(/C=C/c1ccc(CN2CCN(C(=O)Nc3ccccc3)c3ccccc32)cc1)NO [Compound 59, 4-[4-((E)-2-Hydroxycarbamoyl-vinyl)-benzyl]-3,4-dihydro-2H-quinoxaline-1-carboxylic acid phenylamide] in this work.
An IC50 (HDAC-1) of 220 nM was found for O=C(/C=C/c1ccc(CN2CCN(C(=O)C3CCCCC3)c3ccccc32)cc1)NO [Compound 60, (E)-3-[4-(4-Cyclohexanecarbonyl-3,4-dihydro-2H-quinoxalin-1-ylmethyl)-phenyl]-N-hydroxy-acrylamide] in this work.
An IC50 (HDAC-1) of 250 nM was found for O=C(/C=C/c1ccc(CN2CCN(C(=O)NCc3ccccc3)c3ccccc32)cc1)NO [Compound 61, 4-[4-((E)-2-Hydroxycarbamoyl-vinyl)-benzyl]-3,4-dihydro-2H-quinoxaline-l-carboxylic acid benzylamide] in this work.
